Values after ≈ are worked out from the molar mass of the structure shown. Like-named read-outs stand apart in the source and are kept apart here.
Assays:
Experiment in all cases: MIC, broth micro dilution assay (NCCLS)
Format in all cases: cell-based
[1] = test system: Streptococcus pneumoniae A28272; conditions: for MIC: Streptococcus pneumoniae, read-out: MIC (μg/mL) against Streptococcus pneumoniae A28272
[2] = test system: Staphylococcus aureus A15090; conditions: for MIC: Staphylococcus aureus, read-out: MIC (μg/mL) against Staphylococcus aureus A15090
[3] = test system: Enterococcus faecalis A20688; conditions: for MIC: Enterococcus faecalis, read-out: MIC (μg/mL) against Enterococcus faecalis A20688
[4] = 50% Mueller-Hinton medium and 50% Todd Hewitt medium, 35° C., 18 hours
[5] = Mueller-Hinton medium, 35° C., 18 hours

| SMILES | MIC (μg/mL) against Streptococcus pneumoniae A28272 [1, 4] [µg/mL] | MIC (μg/mL) against Staphylococcus aureus A15090 [2, 5] [µg/mL] | MIC (μg/mL) against Enterococcus faecalis A20688 [3, 5] [µg/mL] | also measured |
| --- | --- | --- | --- | --- |
| COC(C)=C1NC(=O)C(C(C)O)NC(=O)c2csc(n2)-c2cc(O)c(-c3nc(C(=O)NC(CN4CCCC4C(O)c4nccn4C)C(N)=O)cs3)nc2-c2csc(n2)C2COC(=O)c3c4c5c(cccc5n3O)COC(=O)C(OC3CC(C)(O)C(N(C)C)C(C)O3)C(OC4)C(NC(=O)c3csc1n3)c1nc(cs1)C(=O)N2 (stereo not drawn) [Example 91] | 0.015 (≈ 0.00927 µM) | 0.03 (≈ 0.0185 µM) | 0.06 (≈ 0.0371 µM) |  |
| CO/C(C)=C1/NC(=O)C(C(C)O)NC(=O)c2csc(n2)-c2cc(O)c(-c3nc(C(=O)NC(CN(C)CCO)C(N)=O)cs3)nc2-c2csc(n2)C2COC(=O)c3[nH]c4cccc5c4c3COC(C(O[C@H]3C[C@](C)(O)[C@H](N(C)C)[C@H](C)O3)C(=O)OC5)C(NC(=O)c3csc1n3)c1nc(cs1)C(=O)N2 (stereo partly drawn) [Example 92] | 0.0005 (≈ 0.000334 µM) | 0.125 (≈ 0.0835 µM) | 0.125 (≈ 0.0835 µM) |  |
| COC(C)=C1NC(=O)C(C(C)O)NC(=O)c2csc(n2)-c2cc(O)c(-c3nc(C(=O)NC(CN(C)CCc4ccccn4)C(N)=O)cs3)nc2-c2csc(n2)C2COC(=O)c3c4c5c(cccc5n3O)COC(=O)C(O)C(OC4)C(NC(=O)c3csc1n3)c1nc(cs1)C(=O)N2 (stereo not drawn) [Example 93] | 0.001 (≈ 0.000713 µM) | 0.06 (≈ 0.0428 µM) | 0.06 (≈ 0.0428 µM) |  |
| COC(C)=C1NC(=O)C(C(C)O)NC(=O)c2csc(n2)-c2cc(O)c(-c3nc(C(=O)NC(CSCC(=O)O)C(N)=O)cs3)nc2-c2csc(n2)C2COC(=O)c3c4c5c(cccc5n3O)COC(=O)C(O)C(OC4)C(NC(=O)c3csc1n3)c1nc(cs1)C(=O)N2 (stereo not drawn) [Example 95] | 0.03 (≈ 0.0221 µM) | 0.5 (≈ 0.368 µM) | 4.0 (≈ 2.94 µM) |  |
| COC(C)=C1NC(=O)C(C(C)O)NC(=O)c2csc(n2)-c2cc(O)c(-c3nc(C(=O)NC(CN(C)CCCn4ccnc4)C(N)=O)cs3)nc2-c2csc(n2)C2COC(=O)c3c4c5c(cccc5n3O)COC(=O)C(O)C(OC4)C(NC(=O)c3csc1n3)c1nc(cs1)C(=O)N2 (stereo not drawn) [Example 97] | 0.125 (≈ 0.0889 µM) | 0.125 (≈ 0.0889 µM) | 0.25 (≈ 0.178 µM) |  |
| COCC1CCCN1CC(NC(=O)c1csc(-c2nc3c(cc2O)-c2nc(cs2)C(=O)NC(C(C)O)C(=O)NC(=C(C)OC)c2nc(cs2)C(=O)NC2c4nc(cs4)C(=O)NC(COC(=O)c4c5c6c(cccc6n4O)COC(=O)C(O)C2OC5)c2nc-3cs2)n1)C(N)=O (stereo not drawn) [Example 98] | 0.003 (≈ 0.00217 µM) | 0.03 (≈ 0.0217 µM) | 0.5 (≈ 0.362 µM) |  |
| CN[C@@H]1[C@H](C)O[C@@H](OC2C(=O)OCc3cccc4c3c3c(n4O)C(=O)OCC4NC(=O)c5csc(n5)C(NC(=O)c5csc(n5)/C(=C(/C)OC)NC(=O)C(C(C)O)NC(=O)c5csc(n5)-c5cc(O)c(-c6nc(C(=O)NC(CN(C)CCO)C(N)=O)cs6)nc5-c5csc4n5)C2OC3)C[C@]1(C)O (stereo partly drawn) [Example 99] |  |  |  | MIC (μg/mL) against Streptococcus pneumoniae A28272 [1]: 0.015 µg/mL (≈ 0.01 µM); MIC (μg/mL) against Staphylococcus aureus A15090 [2]: 0.03 µg/mL (≈ 0.02 µM); MIC (μg/mL) against Enterococcus faecalis A20688 [3]: 0.125 µg/mL (≈ 0.0834 µM) |
| C/C=C1\NC(=O)C(C(C)O)NC(=O)c2csc(n2)-c2cc(O)c(-c3nc(C(=O)NC(CN(C)CCCn4ccnc4)C(N)=O)cs3)nc2-c2csc(n2)C2CSC(=O)c3[nH]c4cccc(c4c3C)COC(=O)C(O)CC(NC(=O)c3csc1n3)c1nc(cs1)C(=O)N2 (stereo not drawn) [Example 101] |  |  |  | MIC ([1]; A28272, 50% Mueller-Hinton medium and 50% Todd Hewitt medium, 35° C., 18 hours): 0.003 µg/mL (≈ 0.0022 µM); MIC ([2]; A15090, Mueller-Hinton medium, 35° C., 18 hours): 0.125 µg/mL (≈ 0.0918 µM); MIC ([3]; A20688, Mueller-Hinton medium, 35° C., 18 hours): 0.125 µg/mL (≈ 0.0918 µM) |
| C/C=C1\NC(=O)C(C(C)O)NC(=O)c2csc(n2)-c2cc(O)c(-c3nc(C(=O)NC(CSCCN(CC)CC)C(N)=O)cs3)nc2-c2csc(n2)C2CSC(=O)c3[nH]c4cccc(c4c3C)COC(=O)C(O)CC(NC(=O)c3csc1n3)c1nc(cs1)C(=O)N2 (stereo not drawn) [Example 102] |  |  |  | MIC ([1]; A28272, 18 h): 0.03 µg/mL (≈ 0.0221 µM); MIC ([2]; A15090, 18 h): 0.125 µg/mL (≈ 0.0922 µM); MIC ([3]; A20688, 18 h): 0.25 µg/mL (≈ 0.184 µM) |
| CCN(CC)CCS(=O)(=O)CC(NC(=O)c1csc(-c2nc3c(cc2O)-c2nc(cs2)C(=O)NC(C(C)O)C(=O)N/C(=C(\C)OC)c2nc(cs2)C(=O)NC2c4nc(cs4)C(=O)NC(COC(=O)c4c5c6c(cccc6n4O)COC(=O)C(O[C@H]4C[C@](C)(O)C(N(C)C)[C@H](C)O4)C2OC5)c2nc-3cs2)n1)C(N)=O (stereo partly drawn) [Example 103] |  |  |  | MIC ([1]; A28272, 18 h): 0.007 µg/mL (≈ 0.00437 µM); MIC ([2]; A15090, 18 h): 0.06 µg/mL (≈ 0.0374 µM); MIC ([3]; A20688, 18 h): 0.03 µg/mL (≈ 0.0187 µM) |
| CO/C(C)=C1/NC(=O)C(C(C)O)NC(=O)c2csc(n2)-c2cc(O)c(-c3nc(C(=O)NC(CS(=O)(=O)C4CN5CCC4CC5)C(N)=O)cs3)nc2-c2csc(n2)C2COC(=O)c3c4c5c(cccc5n3O)COC(=O)C(O[C@H]3C[C@](C)(O)C(N(C)C)[C@H](C)O3)C(OC4)C(NC(=O)c3csc1n3)c1nc(cs1)C(=O)N2 (stereo partly drawn) [Example 104] |  |  |  | MIC ([1]; A28272, 18 h): 0.06 µg/mL (≈ 0.0372 µM); MIC ([2]; A15090, 18 h): 0.5 µg/mL (≈ 0.31 µM); MIC ([3]; A20688, 18 h): 1 µg/mL (≈ 0.62 µM) |
| CO/C(C)=C1/NC(=O)C(C(C)O)NC(=O)c2csc(n2)-c2cc(O)c(-c3nc(C(=O)NC(CS(=O)(=O)C4C[N+]5([O-])CCC4CC5)C(N)=O)cs3)nc2-c2csc(n2)C2COC(=O)c3c4c5c(cccc5n3O)COC(=O)C(OC3CC(C)(O)C([N+](C)(C)[O-])C(C)O3)C(OC4)C(NC(=O)c3csc1n3)c1nc(cs1)C(=O)N2 (stereo not drawn) [Example 105] |  |  |  | MIC ([1]; A28272, 18 h): 0.25 µg/mL (≈ 0.152 µM); MIC ([2]; A15090, 18 h): 1 µg/mL (≈ 0.608 µM); MIC ([3]; A20688, 18 h): 2 µg/mL (≈ 1.22 µM) |
| COC(C)=C1NC(=O)C(C(C)O)NC(=O)c2csc(n2)-c2cc(O)c(-c3nc(C(=O)NC(CN(C)C(=O)CCC(=O)O)C(N)=O)cs3)nc2-c2csc(n2)C2COC(=O)c3c4c5c(cccc5n3O)COC(=O)C(OC3CC(C)(O)C(N(C)C)C(C)O3)C(OC4)C(NC(=O)c3csc1n3)c1nc(cs1)C(=O)N2 (stereo not drawn) [Example 106] | 8.0 (≈ 5.1 µM) | 4.0 (≈ 2.55 µM) | 32 (≈ 20.4 µM) |  |
| CNC(=O)On1c2c3c4c(cccc41)COC(=O)C(OC1CC(C)(O)C(N(C)C)C(C)O1)C(OC3)C1NC(=O)c3csc(n3)C(=C(C)OC)NC(=O)C(C(C)O)NC(=O)c3csc(n3)-c3cc(O)c(-c4nc(C(=O)NC(CN(C)C(=O)NC)C(N)=O)cs4)nc3-c3csc(n3)C(COC2=O)NC(=O)c2csc1n2 (stereo not drawn) [Example 108] | 0.03 (≈ 0.019 µM) | 0.125 (≈ 0.079 µM) | 0.5 (≈ 0.316 µM) |  |
| CNC(=O)N(C)CC(NC(=O)c1csc(-c2nc3c(cc2O)-c2nc(cs2)C(=O)NC(C(C)O)C(=O)N/C(=C(\C)OC)c2nc(cs2)C(=O)NC2c4nc(cs4)C(=O)NC(COC(=O)c4c5c6c(cccc6n4O)COC(=O)C(OC4CC(C)(O)C(N(C)C)C(C)O4)C2OC5)c2nc-3cs2)n1)C(N)=O (stereo not drawn) [Example 109] | 0.06 (≈ 0.0393 µM) | 0.06 (≈ 0.0393 µM) | 0.5 (≈ 0.328 µM) |  |
| CNC(=O)N(CCN(C)C)CC(NC(=O)c1csc(-c2nc3c(cc2O)-c2nc(cs2)C(=O)NC(C(C)O)C(=O)N/C(=C(\C)OC)c2nc(cs2)C(=O)NC2c4nc(cs4)C(=O)NC(COC(=O)c4c5c6c(cccc6n4O)COC(=O)C(OC4CC(C)(O)C(N(C)C)C(C)O4)C2OC5)c2nc-3cs2)n1)C(N)=O (stereo not drawn) [Example 110] |  |  |  | MIC (μg/mL) against Streptococcus pneumoniae A28272 [1]: 0.03 µg/mL (≈ 0.019 µM); MIC (μg/mL) against Staphylococcus aureus A15090 [2]: 0.5 µg/mL (≈ 0.316 µM); MIC (μg/mL) against Enterococcus faecalis A20688 [3]: 2.0 µg/mL (≈ 1.26 µM) |

— patent US20020065219A1, “Water soluble thiazolyl peptide derivatives” (priority 2000, published 2002)
